2 molecules from patent US20230348416A1, “GPR52 MODULATOR COMPOUNDS” (Heptares Therapeutics Limited, priority 2020, published 2023) can be followed below.

Structures are written as SMILES.

One series has as its target T1, human GPR52 (Homo sapiens, UniProt Q9Y2T5).
T1 construct: expressed in transfected cells; host or cells: HEKf suspension cells infected with BacMam virus
As to the kind of experiment: GPR52 Agonist Functional cAMP Assay. In kind it is cell-based. The settings on record: for EC50: HEKf cells infected with human GPR52 BacMam virus, HTRF cAMP, 30 min at 37° C., read-out: PEC50 average (converted). The procedure:
GPR52 Agonist Functional cAMP Assay
HEKf suspension cells were infected for 24 h with 0.1% v/v human GPR52 expressing BacMam virus, a modified baculovirus designed for mammalian gene expression. Following BacMam infection, cells were pelleted by centrifugation (335 g, 5 min), resuspended in cell freezing medium (Sigma) and frozen at −150° C. until required. On experiment day, 25 nL GPR52 compound dilutions, prepared in DMSO, were stamped onto proxiplates (PerkinElmer) by a LabCyte ECHO acoustic dispenser. Frozen cells were thawed and resuspended in assay stimulation buffer (Cisbio) containing 0.5 mM 3-iso-butyl-1-methylxanthine (IBMX, Sigma) to achieve a density of 2000 cells per well. 10 μl cells were added to assay plates using a Multidrop Combi Reagent Dispenser (ThermoFisher) before centrifugation (335 g, 1 min). Cells were incubated with compounds at 37° C. for 30 min prior to addition of cAMP detection reagents (HiRange cAMP kit, Cisbio) which were prepared according to the manufacturer's instructions. Plates were shaken for 1 h at room temperature before reading on a PHERAstar FS plate reader (BMG Labtech) using standard HTRF settings. HTRF ratios were obtained by dividing the acceptor emissions (665 nm) by the donor emissions (620 nm) and multiplying by 10,000.
(TR-FRET usually uses a lanthanide donor and a delayed reading to cut background.)

In series [1] the test system is caffeine-induced hyperlocomotor activity. As to the kind of experiment: Attenuation of caffeine-induced locomotor activity in rat. It counts as in vivo, male Sprague-Dawley rats. The settings on record: PO 60 min before caffeine 15 mg/kg SC, locomotor activity over 2 h, FIG. 1. The source says:
Caffeine, a non-selective adenosine receptor antagonist, is a psychostimulant which increases rodent locomotor activity principally via blockade of A2A receptors (Br. J. Pharmacol., 2000, 129, 1465). These receptors are densely expressed on the terminals of GABAergic striatopallidal neurons in the indirect pathway of the basal ganglia, in which dopamine D2 receptors are co-expressed (J. Comp. Neurol., 1998, 401, 163; J. Comp. Neurol., 2001, 431, 331). Tonic activation of A2A receptors decreases the affinity of D2 receptors to dopamine and antagonism of A2A receptors facilitates dopaminergic signalling (Curr. Pharm. Des., 2008, 14, 1468). […] Male Sprague-Dawley rats (200-250 g) were housed in groups with a 12 h light/dark cycle (lights on at 07.00), at an ambient temperature of 21±2° C. and with standard pelleted diet and water adlibitum. Testing was carried out in the light phase. On the day of the experiment, animals were habituated to the locomotor cages for a 60-minute period. Subsequently, they were dosed with vehicle or Example 2 Isomer 1 (0.1, 0.3, 1 and 3 mg/kg) by the oral route and returned to the appropriate locomotor cage. Example 2 Isomer 1 was formulated in a vehicle of 10% DMAC, 10% solutol (Kolliphor HS15) and 80% water (v/v/v). […] Locomotor activity was assessed for a 2 h period after caffeine treatment. […] SEMs were calculated from the residuals of the statistical model. […]

Series [2] can be described thus: Rat IV and PO pharmacokinetic profiling. It counts as in vivo, male Sprague-Dawley rats. The settings on record: male, Sprague-Dawley, plasma, n = 3, mean ± standard deviation. The procedure:
The pharmacokinetic profiles of Example 2 were assessed in male Sprague-Dawley rats via intravenous (IV) and oral (per os, PO) routes of delivery. Pharmacokinetic data (mean values±standard deviation) for Example 2 of the invention are detailed in Table 5.
Methods: For pharmacokinetic analysis, groups of three male Sprague-Dawley rats, ranging in weight between 200 and 230 g, were administered a single dose of Example 2 via IV or PO route, using the doses, dose volumes and vehicles specified in Table 5. Following dosing, blood samples were taken at several time points (pre-dose, 2 min, 5 min, 15 min, 30 min, 1 h, 3 h, 6 h, 12 h and 24 h for IV administration and pre-dose, 5 min, 15 min, 30 min, 1 hr, 2 h, 4 h, 8 h, 12 h and 24 h for PO administration) via serial tail vein bleeds, and centrifuged to separate plasma for analysis by LC-MS/MS. WinNonlin v8.2 statistics software (Pharsight Corporation, California, USA) was used to generate pharmacokinetic parameters using non-compartmental analysis.

Series [3] can be described thus: Rat IV brain penetration (unbound brain-to-plasma ratio). It counts as in vivo, male Sprague-Dawley rats. The settings on record: male, Sprague-Dawley, brain and plasma, 1 mg/kg, 10 min post-dose, n = 3. The procedure: Plasma and brain exposure were evaluated to assess the brain penetration of Example 2, following IV administration. Unbound brain-to-plasma ratio (Kp,uu) was calculated, as detailed in Table 5, following experimental determination of binding in rat plasma and brain homogenate.
Methods: For brain penetration assessment, male Sprague-Dawley rats (n=3) were administered a single 1 mg/kg dose (formulated in 10% DMAC+10% Solutol HS15+80% saline) via the IV route. After 10 min post-dose, animals were sacrificed and brains extracted, homogenised with 2 volumes (w/v) of 50 mM sodium phosphate buffer (pH 7.4), and analysed by LC-MS/MS. Blood samples were removed at the same time point via tail vein bleed, centrifuged and the plasma analysed by LC-MS/MS.
To permit calculation of unbound brain-to-plasma ratio (Kp,uu), test compound binding in rat plasma and brain homogenate was performed, using Rapid Equilibrium Dialysis (RED). Test compound prepared in DMSO (1 μM final, 0.2% DMSO) was added to (i) undiluted male Sprague Dawley rat plasma and (ii) rat brain tissue homogenised with 2 volumes (w/v) of sodium phosphate buffer (pH 7.4), and dialysed against phosphate buffer for 5 h at 37° C. […] Fraction unbound (Fu) in plasma and brain was calculated using the following formula, then used to correct total plasma and brain concentrations to derive the Kp,uu: […]

Where [4] appears, read: maximal response normalised to DMSO (0%) and compound 7m of J. Med. Chem., 2014, 57, 5226 (100%).

T1 sequence (Q9Y2T5 whole entry): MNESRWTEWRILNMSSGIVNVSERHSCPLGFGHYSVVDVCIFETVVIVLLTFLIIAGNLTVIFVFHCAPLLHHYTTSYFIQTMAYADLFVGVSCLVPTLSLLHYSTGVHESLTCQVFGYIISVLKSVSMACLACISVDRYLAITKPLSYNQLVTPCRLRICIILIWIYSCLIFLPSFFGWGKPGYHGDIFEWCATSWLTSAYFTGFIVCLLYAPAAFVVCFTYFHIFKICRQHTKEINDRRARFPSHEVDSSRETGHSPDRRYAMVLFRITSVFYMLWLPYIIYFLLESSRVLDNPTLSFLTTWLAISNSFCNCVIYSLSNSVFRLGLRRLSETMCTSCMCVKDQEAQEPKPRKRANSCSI

For `CC(=O)NC1CCCc2c1nnn2-c1cc(Cc2cc(F)cc(C(F)(F)F)c2)ccn1` (single isomer, unassigned) [Example 2 Isomer 1, N-(1-(4-(3-fluoro-5-(trifluoromethyl)benzyl)pyridin-2-yl)-4,5,6,7-tetrahydro-1H-benzo[d][1,2,3]triazol-4-yl)acetamide], the EC50 on human GPR52 was 15.8 nM. Also, on human GPR52 (setting [4]), the “Emax (%)” value is 91%. In addition, the “effect on caffeine-induced hyperlocomotor response” value in series [1] is “dose-dependent reduction of the caffeine-induced hyperlocomotor response, reaching statistical significance across all time points at 3 and 10 mg/kg”.
For the molecule `CC(=O)NC1CCCc2c1nnn2-c1cc(Cc2cc(F)cc(C(F)(F)F)c2)ccn1` (centres unmarked) [Example 2, N-(1-(4-(3-fluoro-5-(trifluoromethyl)benzyl)pyridin-2-yl)-4,5,6,7-tetrahydro-1H-benzo[d][1,2,3]triazol-4-yl)acetamide], the EC50 at human GPR52 is 50.1 nM. Further, the Emax (usually the greatest response seen or fitted, relative to the assay's reference) at human GPR52 (setting [4]) was 86%. Further, the clearance in series [2] (rat IV, 1 mg/kg) was found to be 5.5 ± 1 mL/min/kg. Further, in series [2] (rat PO, 3 mg/kg), the bioavailability (usually the share of a dose that reaches the circulation, judged against a reference dose that is usually intravenous) is 88.2 ± 11.4%. Moreover, the Kp uu at 10 min in series [3] worked out at 0.35 ± 0.02.
